In patent US20170189418A1, “PHARMACEUTICAL COMPOSITION FOR TREATING LUNG CANCER” (MA SHEN KAI RUEI CO., LTD., priority 2015, published 2017):

Tests used:
Type in all cases: cell-based
Conditions in all cases: isolated compound
A549 cells = assay: MTT survival assay, human lung cancer cell line A549
Protocol: (§1) The Anctin K(AnK) and dehydroeburicoic acid (DeHBA) separately isolated from the Extraction A of Example 1 were added into the culture media of human lung-cancer cells, A549, CH27 or H460, to test for tumor cell survival by using anti-cancer drug screen model. This survival assay was carried out with the widely known MTT (3-[4,5-dimethylthiazol-2-yl]2,5-diphenyltetrazolium bromide) assay.
(§2) Lung cancer cell lines, A549 cells are adenocarcinomic human alveolar basal epithelial cells. A549 cell line are widely used as an in vitro model for a type II pulmonary epithelial cell model for drug metabolism and as a transfection host, while CH27 is human lung squamous carcinoma cell and H460 is human lung non-small cell carcinoma cell. The human lung-cancer cells, A549, CH27 and H460 were cultivated in media containing fetal calf serum for 10 hours. The proliferated cells were washed once with PBS, then treated with 1× trypsin-EDTA and centrifuged at 2000 rpm for 10 minutes. The supernatant was discarded and the cell pellet was re-suspended in […] of fresh culture medium by gently shaking. The cells were placed in a 96-well plate.
(§3) Subsequently, the plates were read on an ELISA reader to determine the survival rates. The half maximal inhibitory concentration (IC50) values were calculated and results of ex vivo survival assay were thus obtained.
(§4) By using the same manner as the method described above, respectively human lung cancer cell line A549, CH27 and H460 was cultured. After then, the pharmaceutical compositions A-F of the present invention was applied separately, and then MTT assay for each sample was measured to assess the inhibition effectiveness of various cancer cell activity while using pharmaceutical compositions A-F of the present invention.

CH27 cells = assay: MTT survival assay, human lung cancer cell line CH27
Protocol: as §1, §2, §3, §4

H460 cells = assay: MTT survival assay, human lung cancer cell line H460
Protocol: as §1, §2, §3, §4

C=C(CC[C@@H](C)[C@H]1CC[C@H]2C3=C(C(=O)C[C@]12C)[C@@]1(C)CC[C@@H](O)[C@](C)(O)C1C[C@@H]3O)C(C)C(=O)O (stereo partly drawn) [Anctin K]
decreasing the survival rate: survival rate of lung cancer cell (A549 cells) | survival rate of lung cancer cell (CH27 cells) | survival rate of lung cancer cell (H460 cells)
relatively low: half-maximal inhibitory concentration (IC50) (A549 cells) | half-maximal inhibitory concentration (IC50) (CH27 cells) | half-maximal inhibitory concentration (IC50) (H460 cells)

C=C(CC[C@@H](C(=O)O)[C@H]1CC[C@@]2(C)C3=CC[C@H]4C(C)(C)[C@@H](O)CC[C@]4(C)C3=CC[C@]12C)C(C)C [dehydroeburicoic acid]
decreasing the survival rate: survival rate of lung cancer cell (A549 cells) | survival rate of lung cancer cell (CH27 cells) | survival rate of lung cancer cell (H460 cells)
relatively low: half-maximal inhibitory concentration (IC50) (A549 cells) | half-maximal inhibitory concentration (IC50) (CH27 cells) | half-maximal inhibitory concentration (IC50) (H460 cells)
